Assay results as given in ChEMBL document CHEMBL1154835, “Antimicrobial study of newly synthesized 6-substituted indolo[1,2-c]quinazolines” (2010).
In brackets after ≈: the same amount, converted by molar mass.

Legend:
Streptococcus pyogenes [1] = assay: Antimicrobial activity against Streptococcus pyogenes at 1000 ug after 24 hrs by cup plate method; format: functional; conditions: read-out: DIZ
Trichoderma viride [2] = assay: Antimicrobial activity against Trichoderma viride after 24 hrs by liquid dilution method; format: functional
Streptococcus pyogenes [3] = assay: Antimicrobial activity against Streptococcus pyogenes after 24 hrs by liquid dilution method; format: functional
Klebsiella pneumoniae [4] = assay: Antimicrobial activity against Klebsiella pneumoniae at 1000 ug after 24 hrs by cup plate method; format: functional; conditions: read-out: DIZ
Candida albicans [5] = assay: Antimicrobial activity against Candida albicans after 24 hrs by liquid dilution method; format: functional
Aspergillus niger [6] = assay: Antimicrobial activity against Aspergillus niger after 24 hrs by liquid dilution method; format: functional
Trichoderma viride [7] = assay: Antimicrobial activity against Trichoderma viride at 1000 ug after 72 hrs by cup plate method; format: functional; conditions: read-out: DIZ
Klebsiella pneumoniae [8] = assay: Antimicrobial activity against Klebsiella pneumoniae after 24 hrs by liquid dilution method; format: functional
Staphylococcus aureus [9] = assay: Antimicrobial activity against Staphylococcus aureus at 1000 ug after 24 hrs by cup plate method; format: functional; conditions: read-out: DIZ
Salmonella enterica [10] = assay: Antimicrobial activity against Salmonella Typhimurium at 1000 ug after 24 hrs by cup plate method; format: functional, Salmonella enterica subsp. enterica serovar Typhimurium; conditions: read-out: DIZ
Staphylococcus aureus [11] = assay: Antimicrobial activity against Staphylococcus aureus after 24 hrs by liquid dilution method; format: functional
Escherichia coli [12] = assay: Antimicrobial activity against Escherichia coli after 24 hrs by liquid dilution method; format: functional
Bacillus subtilis [13] = assay: Antimicrobial activity against Bacillus subtilis at 1000 ug after 24 hrs by cup plate method; format: functional; conditions: read-out: DIZ
Escherichia coli [14] = assay: Antimicrobial activity against Escherichia coli at 1000 ug after 24 hrs by cup plate method; format: functional; conditions: read-out: DIZ
Bacillus subtilis [15] = assay: Antimicrobial activity against Bacillus subtilis after 24 hrs by liquid dilution method; format: functional
Aspergillus niger [16] = assay: Antimicrobial activity against Aspergillus niger at 1000 ug after 72 hrs by cup plate method; format: functional; conditions: read-out: DIZ
Salmonella enterica [17] = assay: Antimicrobial activity against Salmonella Typhimurium after 24 hrs by liquid dilution method; format: functional, Salmonella enterica subsp. enterica serovar Typhimurium
Candida albicans [18] = assay: Antimicrobial activity against Candida albicans at 1000 ug after 72 hrs by cup plate method; format: functional; conditions: read-out: DIZ

| SMILES | zone of inhibition at 1000 µg/disc (Streptococcus pyogenes [1]) [mm] | MIC (Trichoderma viride [2]) [µg/mL] | MIC (Streptococcus pyogenes [3]) [µg/mL] | zone of inhibition at 1000 µg/disc (Klebsiella pneumoniae [4]) [mm] | MIC (Candida albicans [5]) [µg/mL] | MIC (Aspergillus niger [6]) [µg/mL] | zone of inhibition at 1000 µg/disc (Trichoderma viride [7]) [mm] | MIC (Klebsiella pneumoniae [8]) [µg/mL] | zone of inhibition at 1000 µg/disc (Staphylococcus aureus [9]) [mm] | zone of inhibition at 1000 µg/disc (Salmonella enterica [10]) [mm] | MIC (Staphylococcus aureus [11]) [µg/mL] | MIC (Escherichia coli [12]) [µg/mL] | zone of inhibition at 1000 µg/disc (Bacillus subtilis [13]) [mm] | zone of inhibition at 1000 µg/disc (Escherichia coli [14]) [mm] | MIC (Bacillus subtilis [15]) [µg/mL] | zone of inhibition at 1000 µg/disc (Aspergillus niger [16]) [mm] | MIC (Salmonella enterica [17]) [µg/mL] | zone of inhibition at 1000 µg/disc (Candida albicans [18]) [mm] |
| --- | --- | --- | --- | --- | --- | --- | --- | --- | --- | --- | --- | --- | --- | --- | --- | --- | --- | --- |
| c1ccc2cc(-c3nc4ccccc4c4cc5ccccc5n34)c(-c3nc4ccccc4c4cc5ccccc5n34)cc2c1 | 39 | 30 (≈ 53.5 µM) | 15 (≈ 26.8 µM) | 35 | 25 (≈ 44.6 µM) | 35 (≈ 62.4 µM) | 12 | 20 (≈ 35.7 µM) | 50 | 14 | 5 (≈ 8.92 µM) | 35 (≈ 62.4 µM) | 45 | 12 | 15 (≈ 26.8 µM) | 17 | 35 (≈ 62.4 µM) | 16 |
| c1ccc2c(c1)cc1c3ccccc3nc(-c3ccc(Oc4ccc(-c5nc6ccccc6c6cc7ccccc7n56)cc4)cc3)n21 | 13 | – | – | 21 | – | – | 18 | – | 18 | 11 | – | – | 14 | 14 | – | 10 | – | 9 |
| c1ccc(-c2nc3ccccc3c3cc4ccccc4n23)c(-c2nc3ccccc3c3cc4ccccc4n23)c1 | 46 | 35 (≈ 68.5 µM) | 20 (≈ 39.2 µM) | 14 | 35 (≈ 68.5 µM) | 20 (≈ 39.2 µM) | 18 | 30 (≈ 58.8 µM) | 52 | 18 | 5 (≈ 9.79 µM) | 20 (≈ 39.2 µM) | 40 | 16 | 20 (≈ 39.2 µM) | 20 | 25 (≈ 49 µM) | 13 |
| c1cc(-c2nc3ccccc3c3cc4ccccc4n23)cc(-c2nc3ccccc3c3cc4ccccc4n23)c1 | 48 | 25 (≈ 49 µM) | 15 (≈ 29.4 µM) | 18 | 30 (≈ 58.8 µM) | 30 (≈ 58.8 µM) | 21 | 35 (≈ 68.5 µM) | 51 | 35 | 5 (≈ 9.79 µM) | 10 (≈ 19.6 µM) | 46 | 20 | 15 (≈ 29.4 µM) | 12 | 20 (≈ 39.2 µM) | 15 |
| c1ccc2c(c1)cc1c3ccccc3nc(-c3ccc(-c4nc5ccccc5c5cc6ccccc6n45)cc3)n21 | 18 | – | – | 13 | – | – | 9 | – | 25 | 11 | – | – | 14 | 16 | – | 12 | – | 21 |
| COc1ccc2[nH]cc(-c3nc4ccccc4c4cc5ccccc5n34)c2c1 | 39 | 10 (≈ 27.5 µM) | 10 (≈ 27.5 µM) | 46 | 15 (≈ 41.3 µM) | 10 (≈ 27.5 µM) | 49 | 5 (≈ 13.8 µM) | 50 | 42 | 5 (≈ 13.8 µM) | 5 (≈ 13.8 µM) | 49 | 50 | 5 (≈ 13.8 µM) | 49 | 5 (≈ 13.8 µM) | 48 |
| Cc1ccc2[nH]cc(-c3nc4ccccc4c4cc5ccccc5n34)c2c1 | 45 | 5 (≈ 14.4 µM) | 5 (≈ 14.4 µM) | 48 | 20 (≈ 57.6 µM) | 2.5 (≈ 7.2 µM) | 46 | 2.5 (≈ 7.2 µM) | 52 | 46 | 5 (≈ 14.4 µM) | 2.5 (≈ 7.2 µM) | 42 | 42 | 10 (≈ 28.8 µM) | 50 | 5 (≈ 14.4 µM) | 51 |
| c1ccc2c(c1)cc1c3ccccc3nc(-c3csc4ccccc34)n21 | 48 | 2.5 (≈ 7.13 µM) | 5 (≈ 14.3 µM) | 50 | 10 (≈ 28.5 µM) | 2.5 (≈ 7.13 µM) | 49 | 5 (≈ 14.3 µM) | 55 | 50 | 2.5 (≈ 7.13 µM) | 2.5 (≈ 7.13 µM) | 51 | 48 | 2.5 (≈ 7.13 µM) | 52 | 2.5 (≈ 7.13 µM) | 45 |
| c1ccc2c(c1)cc1c3ccccc3nc(-c3ccc(-c4ccncc4)cc3)n21 | 42 | 25 (≈ 67.3 µM) | 15 (≈ 40.4 µM) | 42 | 30 (≈ 80.8 µM) | 25 (≈ 67.3 µM) | 21 | 30 (≈ 80.8 µM) | 50 | 25 | 5 (≈ 13.5 µM) | 25 (≈ 67.3 µM) | 48 | 35 | 10 (≈ 26.9 µM) | 22 | 20 (≈ 53.8 µM) | 18 |
| c1ccc2c(c1)cc1c3ccccc3nc(-c3c[nH]c4ccccc34)n21 | 49 | 2.5 (≈ 7.5 µM) | 2.5 (≈ 7.5 µM) | 49 | 5 (≈ 15 µM) | 10 (≈ 30 µM) | 50 | 5 (≈ 15 µM) | 51 | 48 | 2.5 (≈ 7.5 µM) | 2.5 (≈ 7.5 µM) | 46 | 52 | 15 (≈ 45 µM) | 46 | 2.5 (≈ 7.5 µM) | 49 |
| CC1(C)S[C@@H]2[C@H](NC(=O)[C@H](N)c3ccccc3)C(=O)N2[C@H]1C(=O)O [AMPICILLIN] | 35 | – | 25 (≈ 71.5 µM) | 45 | – | – | – | 10 (≈ 28.6 µM) | 48 | 45 | 10 (≈ 28.6 µM) | 5 (≈ 14.3 µM) | 39 | 40 | 20 (≈ 57.2 µM) | – | 10 (≈ 28.6 µM) | – |
| CC(=O)N1CCN(c2ccc(OCC3COC(Cn4ccnc4)(c4ccc(Cl)cc4Cl)O3)cc2)CC1 (stereo not given) [KETOCONAZOLE] | – | 20 (≈ 37.6 µM) | – | – | 25 (≈ 47 µM) | 15 (≈ 28.2 µM) | 41 | – | – | – | – | – | – | – | – | 45 | – | 40 |
